Counter-ions that a name gives are not always drawn.
Tests used:
AWA activity = assay: Nemadipine-A treatment of multi-well plate embedded animals, optogenetically-evoked calcium responses; type: in vivo, C. elegans; conditions: 10, 50, 100 uM vs 1% DMSO control, stimulated every 10 min for 24 hours; dose dependence
Protocol: A small volume (10 uL) of PEG hydrogel solution (10% with 0.5×S. basal) with photoinitiator was pipetted into each PCR tube (one tube per one well). Young adult animals (CX16573) were transferred into the hydrogel solution by worm pick (up to 40 or more). The hydrogel and worm solution was transferred from one PCR tube to the bottom of one well of a 384 well plate, and repeated for as many PCR tubes prepared. The 384 well plate was placed into −20° C. freezer for no more than 10 min, then immediately placed on the 308 nm light source to crosslinking for no more than 45 s. Then, a small volume (60 uL) of 1 mM ATR in water was pipetted into crosslinked wells, covered, placed in the dark, and allowed to incubate for at least 1 hr, or up to 24 hrs. Animals were then imaged on a custom designed microscope and optical configuration allowing for both red-light excitation and blue-light excitation sent through the objective, all set by the initial experimental settings. Red light pulse durations, well position, cycle number and cycle delay conditions were set by a custom MicroManager script, and executed.
After crosslinking and before all-trans retinal (ATR) transfer to each well, solutions of 10 μM, 50 μM, and 100 μM nemadipine-A to a final concentration of 1% DMSO in 1 mM ATR were prepared. A control well containing only 1% DMSO in 1 mM ATR was prepared as well. […]

AWA sensory neuron pair = assay: Microfluidic chemical pulse stimulation of hydrogel-embedded C. elegans, GCaMP light sheet imaging; type: in vivo; conditions: 5-s and 10-s pulses
Description: Wild-type C. elegans expressing GCaMP in the AWA sensory neuron pair were encapsulated in a hydrogel disk above a 100 μm wide microfluidic channel. External tubing connections and valves delivered 1, 5, or 10 second long pulses of chemical flow beneath the hydrogel disk. Small molecule chemicals (MW<500 Da) diffuse rapidly through the hydrogel, typically in under 1 second, to reach the encapsulated organism(s).

C. elegans [1] = assay: Quantification of movement of hydrogel-embedded animals; type: in vivo
Protocol: Young adult QW1217 worms with pan-neuronal expression of nuclear-localized mCherry were embedded in 10% and 20% PEG hydrogels (3 μL with 100 μm spacer, 0.1% I2959, 20 s exposure using a 312 nm UV source). Worms received either no pretreatment, exposure to hypoosmotic (diH2O, 0 mOsm) or hyperosmotic buffers (0.5 M glycerol in diH2O, 500 mOsm or 1.5×S-Basal, 420 mOsm) for 10 min, or cooling in a −20° C. freezer or in contact with ice for 1-3 min prior to crosslinking. PEG hydrogel solutions were prepared in diH2O or S-Basal buffer, and some contained the paralytic reagents 25 mM sodium azide (Massie et al., 2003) or 1 mM tetramisole hydrochloride (Sigma) (Larsch et al., 2013). Other hydrogel solutions were prepared in 500 mM glycerol or 1.5×S-Basal hyperosmotic buffers. After crosslinking, all hydrogels were submerged in an aqueous solution of either S-Basal, diH20, sodium azide (25 mM) or tetramisole (1 mM) for imaging. Videos were captured with a Hamamatsu Orca-Flash 4.0 camera at 1 frame/sec for 3 min on a Zeiss AxioObserver inverted epifluorescence microscope with a 20×/0.5 NA objective.
Animal movement was analysed by comparing frame-to-frame image differences. Movement index is described using the equation M.I.=ΔIROI/IROI−IBG, where ΔIROI represents the difference in pixel intensity between consecutive frames, averaged across a region of interest (ROI), IROI represents the average intensity of the ROI, and IBG represents the average intensity of a Background region. […] First, the absolute value differences between each pair of consecutive frame averaged pixel intensities were calculated. Next, the difference image stack was smoothed (average of its 3×3 neighborhood). To reduce the contribution of pixel noise, a value of 10 (corresponding to average pixel noise) was subtracted uniformly from each frame and negative values were set to 0. Regions of Interest (ROIs) were selected over the head (nerve ring) and ventral cord and a background region (BG). The movement index was calculated as […], where ΔIROI is the mean of difference images across the ROI, and ΔIROI and IBG, are the mean intensity of the ROI and background regions for the first frame, respectively. Here, identical sequential frames would have a M.I. of zero, whereas images that have changes in position, rotation, focus, or intensity have increasing M.I. values.
Movement in the image plane was quantified by tracking cell nucleus position over 3 minutes. Individual neurons were tracked using NeuroTracker (Larsch et al., 2013) and centroid positions were used to determine the range of axial movement by the animal.

C. elegans [2] = conditions: 25 mM sodium azide, agarose pad
Protocol: For hydrogel encapsulation, 5 μL of a 10% PEG hydrogel with 0.1% I2959 containing late L1/L2 stage animals was placed on a fluorinated glass slide with 50 μm thick tape spacers, polymerized with 312 nm UV light, and imaged on an upright Zeiss Axioskop microscope with a 100×/1.4 NA objective using DIC optics. Images were captured every hour for 12 hours without movement of the sample. For comparison, animals were mounted onto conventional agarose pads with chemical or physical restraint. […] Animals were picked into this droplet and a cover slip was placed on top before imaging. Alternatively, a 0.25-0.5 μL drop of polystyrene nanobeads (100 nm, Polysciences, Inc.) was placed on a 10% agarose pad prior to adding animals, a cover slip, and imaging.

[3] = test system: AWA chemosensory neuron calcium responses; assay: Automated small-molecule screening of optogenetically-evoked calcium activity suppressors (LOPAC library); type: in vivo, C. elegans; conditions: 10 μM, 1% DMSO, about 18 hours exposure; beyond mean ± 3 standard deviations
Protocol: For all well plate experiments, equal parts of 20% PEGDA (0.1% Irgacure) was added to a synchronized animal population in M9, resulting in ˜5 an/μL, 10% PEGDA, 0.05% Irgacure, and 0.5×M9. […] Both procedures used repeated mixing (4-5×) to maintain an even animal suspension during transfer. The animal-containing multiwell plate was transiently cooled for 10 min at −20° C. to settle animals at the bottom of the well, then immediately exposed to 308 nm UV light to photo-crosslink and embed the animals. Single wells can also be prepared by standard picking and transfer of animals to a final 10% gel solution (using PCR tubes), depending on experimental design or desired throughput.
Aliquoted LOPAC drug library plates were received from the UMMS small-molecule screening facility as 16 individual 96-well plates containing 3 nmol of compound per well (3 μL of 1 mM in 100% DMSO), stored at −80° C. until use. […]
A suite of custom ImageJ macros was developed for automated neuron selection and trace recording (aNT), or to manually select neurons (neuronPos) and then record calcium intensity in each well across all wells and cycles automatically (NT). […] Local background subtracted fluorescence (F) was calculated as F=(FR−Fbg).

[4] = hyper-osmotic solution (0.5 M glycerol 500 mOsm or 1.5x S-Basal 420 mOsm) 10 min prior to or during crosslinking, imaged in S-Basal buffer

CCOC(=O)C1=C(C)NC(C)=C(C(=O)OCC)C1c1c(F)c(F)c(F)c(F)c1F [Nemadipine-A]
Peak calcium response (change in fluorescence) of AWA (AWA activity): reduction in peak response

CC(=O)C(C)=O [diacetyl]
AWA neuron response (relative integrated fluorescence) to odor stimulation (AWA sensory neuron pair): stimulated one of the two neurons

OCC(O)CO [glycerol]
Movement index (M.I.) (C. elegans [1]; [4]): 0.02±0.007 | Range of movement over 3 min (C. elegans [1]; [4]): 8±7 μm

[N-]=[N+]=[N-] [sodium azide]
Reduction of movement index (C. elegans [1]; 20% PEG hydrogels, paralytic vs no paralytic, P<0.0001): 5 fold | Movement index (M.I.) (C. elegans [1]; C. elegans embedded in 20% PEG hydrogels, mean over 3 min, 25 mM sodium azide or 1 mM tetramisole during gelation or transiently after encapsulation, hydrogel alone without paralytic): 0.07±0.01 | Movement (displacement range) over 3 minutes (C. elegans [1]; C. elegans embedded in 20% PEG hydrogels, 25 mM sodium azide or 1 mM tetramisole, hydrogel alone without paralytic): 18 μm | Cell death in paralyzed animals (C. elegans [2]): characteristics of necrotic cell death after 6 hours

c1ccc(C2CN3CCSC3=N2)cc1 (stereo not drawn) [tetramisole, tetramisole hydrochloride]
Movement (displacement range) over 3 minutes (C. elegans [1]; in vivo): 19 μm | Movement index (M.I.) (C. elegans [1]; in vivo): 0.06±0.02 | Reduction of movement index (C. elegans [1]; in vivo): 5 fold

ivermectin
Screen result: relative peak ΔF/F0 calcium response, fold change cycle 4 to 1 [3]: positive hits

Source: US11248995B2, “Hydrogel encapsulation of living organisms for long-term microscopy” (priority 2017, dated 2022)
